Source: patent US7553496B2, “VEGF-A as an inhibitor of angiogenesis and methods of using same” (University of Kentucky Research Foundation, priority 2004, dated 2009)
Entries after “also recorded” stand apart in the source; their conditions may differ.

What was measured:
flt3 = conditions: read-out: IC50 flt3; cited from earlier work
[1] = test system: platelet derived growth factor receptor (PDGFR); conditions: cited from earlier work
laser-induced CNV = assay: Laser-induced choroidal neovascularization (CNV) volume, confocal microscopy; assay type: in vivo, mouse; conditions: for effect on VEGF-A-induced suppression of CNV: given with VEGF-A164 after laser injury
c-kit = c-kit (Homo sapiens, UniProt P10721); conditions: cited from earlier work
VEGF-A = conditions: mouse, in vivo
VEGFR-1 = VEGFR-1 (Homo sapiens, UniProt P17948); conditions: cited from earlier work
Ccl-2 = Ccl-2 levels in RPE and choroid after laser injury (ELISA); assay type: in vivo, mouse
choroidal macrophages = assay: Choroidal macrophage recruitment after laser injury (flow cytometry); assay type: in vivo, mouse
Procedure: Drug treatments. VEGF-A164 (4-12 ng), VEGF-A120 (2.7-27 ng), PLGF-1 (12.5-1,250 ng), mouse PLGF-2 (165-1,650 ng), mouse Ccl-2 (0.55 ng), neutralizing goat antibodies to mouse VEGF-A (5-20 ng), mouse VEGFR-1 (6-18 μg), mouse VEGFR-2 (25-250 ng), or rat NP-1 (200-500 ng; all R&D Systems), recombinant human SPARC (100-300 ng; purified in the laboratory of E. H. Sage) or neutralizing mouse antibody to human SPARC (4-12 μg; purified in the laboratory R. W. Brekken, University of Texas), neutralizing rabbit antibody to rat NP-2 (200-500 ng; gifts of D. D. Ginty, Johns Hopkins University and S. Niclou, Netherlands Institute for Brain Research (Shearer, M. C. et al. The astrocyte/meningeal cell interface is a barrier to neurite outgrowth which can be overcome by manipulation of inhibitory molecules or axonal signalling pathways. […]
Flow cytometry. […] Rabbit antibody to mouse VEGFR-1 (1:250; Santa Cruz) coupled with Cy5-donkey antibody to rabbit IgG Ab (1:250) and Phycoerythrin-conjugated rat antibody to mouse VEGFR-2 (1:250; eBioscience) were used to quantitate cell surface receptor expression. […] DNA content was analyzed following incubation with propidium iodide (0.05 mg/ml; Molecular Probes) containing 0.1% Triton X-100 and RNase A (0.1 mg/ml; Roche).

[2] = test system: choroidal endothelial cells (CEC); assay: Cell cycle distribution of CEC after laser injury (flow cytometry, propidium iodide); conditions: mouse, in vivo
Procedure: Flow cytometry. Single cell suspensions isolated from mouse RPE/choroids via collagenase D (20 U/ml; Roche Diagnostics) treatment were incubated in Fc block (0.5 mg/ml; BD Pharmingen) for 15 min on ice. Rabbit antibody to mouse VEGFR-1 (1:250; Santa Cruz) coupled with Cy5-donkey antibody to rabbit IgG Ab (1:250) and Phycoerythrin-conjugated rat antibody to mouse VEGFR-2 (1:250; eBioscience) were used to quantitate cell surface receptor expression. Macrophages defined as F4/80^+CD11c^− cells, were gated by rat antibody to mouse Cy5-F4/80 (1:30; Serotec) and hamster antibody to mouse FITC-CD11c (1:100; Serotec), CEC by FITC-conjugated rat antibody to mouse CD31 (1:250; BD Biosciences), and RPE cells by FITC-conjugated mouse antibody to human pan-cytokeratin (1:250; Sigma-Aldrich) staining following fixation with 4% paraformaldehyde and permeabilization with 1% Triton X-100 (Sigma Aldrich) and subjected to FACS analysis (FACSCalibur, BD Biosciences). DNA content was analyzed following incubation with propidium iodide (0.05 mg/ml; Molecular Probes) containing 0.1% Triton X-100 and RNase A (0.1 mg/ml; Roche).

[3] = test system: bone marrow derived endothelial cells (BMDECs); assay: Bone marrow derived endothelial cell incorporation in GFP chimeric mice (flow cytometry); assay type: in vivo, mouse; conditions: 0.55 ng
Source text: We tested the effect of VEGF-A164 injection one day after laser injury in GFP chimeric mice 8 weeks following bone marrow transplantation in mice with engraftment exceeding 90%. In the RPE/choroid, GFP^+ cells were identified only at the site of laser injury and the immediate vicinity (data not shown). The bulk (>60%) of GFP^+ cells in the RPE/choroid following injury expressed either CD11b or F4/80, markers of monocytic lineage, while nearly all (>95%) CD11b^+ and F4/80^+ cells expressed GFP. […] The vast majority (>90%) of GFP^+CD31^+ cells, both in PBS- and VEGF-A164-treated eyes, also expressed CD11b or F4/80.
Flow cytometry. Single cell suspensions isolated from mouse RPE/choroids via collagenase D (20 U/ml; Roche Diagnostics) treatment were incubated in Fc block (0.5 mg/ml; BD Pharmingen) for 15 min on ice. Rabbit antibody to mouse VEGFR-1 (1:250; Santa Cruz) coupled with Cy5-donkey antibody to rabbit IgG Ab (1:250) and Phycoerythrin-conjugated rat antibody to mouse VEGFR-2 (1:250; eBioscience) were used to quantitate cell surface receptor expression. […] DNA content was analyzed following incubation with propidium iodide (0.05 mg/ml; Molecular Probes) containing 0.1% Triton X-100 and RNase A (0.1 mg/ml; Roche).

[4] = agent alone, intravitreous, immediately or one day after laser injury, wild-type mice, vs PBS

Sequence of VEGFR-1 (P17948 27-1338, species assumed): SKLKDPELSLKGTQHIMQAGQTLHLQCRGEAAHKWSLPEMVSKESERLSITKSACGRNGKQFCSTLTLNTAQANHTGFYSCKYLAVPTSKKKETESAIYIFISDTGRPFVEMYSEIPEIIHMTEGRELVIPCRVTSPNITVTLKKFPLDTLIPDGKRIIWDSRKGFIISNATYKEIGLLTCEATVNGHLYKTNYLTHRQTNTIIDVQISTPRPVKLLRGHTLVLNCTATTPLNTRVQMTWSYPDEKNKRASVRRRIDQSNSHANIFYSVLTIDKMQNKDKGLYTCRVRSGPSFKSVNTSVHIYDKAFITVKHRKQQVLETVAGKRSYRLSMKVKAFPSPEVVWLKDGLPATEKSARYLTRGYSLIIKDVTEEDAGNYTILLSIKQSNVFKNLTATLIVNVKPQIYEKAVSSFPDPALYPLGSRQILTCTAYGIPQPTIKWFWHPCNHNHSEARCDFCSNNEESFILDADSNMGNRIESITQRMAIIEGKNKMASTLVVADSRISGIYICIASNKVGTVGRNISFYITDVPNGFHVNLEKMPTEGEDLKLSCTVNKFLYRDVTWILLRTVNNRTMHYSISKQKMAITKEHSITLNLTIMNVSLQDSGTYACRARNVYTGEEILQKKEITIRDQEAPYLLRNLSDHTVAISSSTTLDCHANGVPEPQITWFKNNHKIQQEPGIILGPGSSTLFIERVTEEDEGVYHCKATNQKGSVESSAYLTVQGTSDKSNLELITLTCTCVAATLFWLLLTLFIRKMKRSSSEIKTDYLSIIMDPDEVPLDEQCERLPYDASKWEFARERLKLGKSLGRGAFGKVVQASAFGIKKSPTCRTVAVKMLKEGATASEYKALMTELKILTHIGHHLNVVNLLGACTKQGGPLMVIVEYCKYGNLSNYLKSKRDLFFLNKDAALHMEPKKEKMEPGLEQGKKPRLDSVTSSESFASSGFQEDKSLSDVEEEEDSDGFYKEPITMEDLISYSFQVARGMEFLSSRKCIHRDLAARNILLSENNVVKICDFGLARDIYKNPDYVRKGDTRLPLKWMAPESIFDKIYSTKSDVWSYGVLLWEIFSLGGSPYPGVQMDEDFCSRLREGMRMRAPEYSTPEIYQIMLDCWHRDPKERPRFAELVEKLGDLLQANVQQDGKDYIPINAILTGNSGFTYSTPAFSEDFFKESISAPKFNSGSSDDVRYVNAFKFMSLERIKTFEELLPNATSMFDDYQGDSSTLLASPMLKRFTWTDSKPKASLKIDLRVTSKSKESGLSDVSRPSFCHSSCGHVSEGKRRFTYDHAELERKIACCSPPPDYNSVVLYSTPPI
Sequence of c-kit (P10721 26-976): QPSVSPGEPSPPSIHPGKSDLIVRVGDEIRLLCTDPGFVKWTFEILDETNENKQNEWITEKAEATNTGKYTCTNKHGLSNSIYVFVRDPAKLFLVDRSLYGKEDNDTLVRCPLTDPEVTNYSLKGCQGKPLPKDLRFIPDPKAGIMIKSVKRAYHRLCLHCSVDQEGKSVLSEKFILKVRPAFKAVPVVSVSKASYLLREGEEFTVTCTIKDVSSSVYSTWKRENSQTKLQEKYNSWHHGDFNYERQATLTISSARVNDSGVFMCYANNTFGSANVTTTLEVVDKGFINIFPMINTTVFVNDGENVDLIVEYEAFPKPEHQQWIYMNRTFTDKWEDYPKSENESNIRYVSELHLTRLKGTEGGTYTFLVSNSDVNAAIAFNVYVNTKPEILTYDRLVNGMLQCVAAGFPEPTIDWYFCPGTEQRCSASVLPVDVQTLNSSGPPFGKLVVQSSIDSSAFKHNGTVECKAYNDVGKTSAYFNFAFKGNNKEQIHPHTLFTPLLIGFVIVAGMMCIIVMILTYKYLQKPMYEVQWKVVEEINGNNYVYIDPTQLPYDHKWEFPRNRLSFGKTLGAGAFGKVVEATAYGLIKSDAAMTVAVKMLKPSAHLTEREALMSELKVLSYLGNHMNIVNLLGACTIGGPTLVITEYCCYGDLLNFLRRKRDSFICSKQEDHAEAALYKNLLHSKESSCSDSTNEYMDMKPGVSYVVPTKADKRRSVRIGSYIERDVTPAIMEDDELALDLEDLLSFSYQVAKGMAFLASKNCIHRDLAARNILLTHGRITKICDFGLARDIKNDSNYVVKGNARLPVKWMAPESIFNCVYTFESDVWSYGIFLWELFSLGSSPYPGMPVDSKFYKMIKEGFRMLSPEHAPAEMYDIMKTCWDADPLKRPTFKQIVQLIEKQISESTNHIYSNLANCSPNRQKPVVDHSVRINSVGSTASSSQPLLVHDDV

Molecule: Cc1cc2ncc(-c3ccccc3)nc2cc1C [AG1295, 6,7-dimethyl-2-phenylquinoxaline]
- IC50 (flt3): 500 nM
- IC50 [1]: 400 nM
- effect on VEGF-A-induced suppression of CNV (laser-induced CNV): Neither AG1295 (15 ng) nor PHA665752 (0.4 ng) blocked
- IC50 (c-kit): 1800 nM

Molecule: Cc1occc(=O)c1[O-].Cc1occc(=O)c1[O-].[O]=[V+2] [BMOV, bis(maltolato)oxovanadium(IV)]
- effect on VEGF-A-induced suppression of CNV (laser-induced CNV): abrogated

Molecule: [Cl-].[Cl-].[Co+2] [CoCl2]
- aggregate VEGF-A exposure (area under the curve) higher than after laser injury alone (VEGF-A): 52%
- peak VEGF-A in RPE and choroid relative to maximal level following laser injury alone (VEGF-A): less than double

Molecule: OB(O)c1cccc(NCc2cc(O)ccc2O)c1 [DBAPBA]
- IC50 (VEGFR-1): 40000 nM
- effect on VEGF-A-induced suppression of Ccl-2 (Ccl-2): blocked
- effect on VEGF-A-induced suppression of CNV (laser-induced CNV): blocked; also recorded: reversed by DBAPBA in a dose-dependent fashion
- effect on VEGF-A-induced suppression of monocyte recruitment (choroidal macrophages): blocked

Molecule: OO [H2O2]
- volume of CNV (laser-induced CNV; [4]): decreased the volume of CNV; also recorded: inhibited

Molecule: COC(=O)[C@@H](N)CCCNC(=N)N[N+](=O)[O-] [L-NAME, N^ω-nitro-L-arginine methyl ester]
- effect on VEGF-A-induced suppression of CNV (laser-induced CNV): did not reverse; also recorded: not affected

Molecule: Cc1[nH]c(/C=C2\C(=O)Nc3ccc(S(=O)(=O)Cc4c(Cl)cccc4Cl)cc32)c(C)c1C(=O)N1CCC[C@@H]1CN1CCCC1 [PHA665752]
- effect on VEGF-A-induced suppression of CNV (laser-induced CNV): Neither AG1295 (15 ng) nor PHA665752 (0.4 ng) blocked

Molecule: CC(C)c1cc(/C=C(\C#N)C(=O)NCCCc2ccccc2)cc(C(C)C)c1O [SU1498, (E)-3-(3,5-diisopropyl-4-hydroxyphenyl)-2-[(3-phenyl-n-propyl)amino-carbonyl]acrylonitrile]
- effect on VEGF-E-induced increase in CNV (laser-induced CNV; after laser injury): blocked

Molecule: Cc1cc(C)c(C=C2C(=O)Nc3ccccc32)[nH]1 [SU5416, 3-((2,4-dimethylpyrrol-5-yl)methylidene]-indolin-2-one]
- effect on VEGF-A-induced suppression of Ccl-2 (Ccl-2): blocked
- effect on VEGF-A-induced suppression of CNV (laser-induced CNV): blocked; also recorded: abrogates
- effect on VEGF-A-induced suppression of monocyte recruitment (choroidal macrophages): blocked

Molecule: C=CC1=C(C)c2cc3[n-]c(cc4[n-]c(cc5nc(cc1n2)C(C)=C5C=C)c(C)c4CCC(=O)O)c(CCC(=O)O)c3C.[Zn+2] [ZnPP, zinc protoporphyrin IX]
- effect on VEGF-A-induced G0/G1 arrest of CEC [2]: reversed
- effect on VEGF-A-induced suppression of Ccl-2 (Ccl-2): abolished
- effect on VEGF-A-induced suppression of CNV (laser-induced CNV): abolished

Molecule: O.O.O.O.O.O.O.O.O.O=C([O-])[C@@H]1[O][Sb]2([O-])([O][Sb]34([OH])[O][C@H]([C@H](O)CO)[C@H]([O]3)[C@H](C(=O)[O-])[O]4)[O][C@H]([C@H](O)CO)[C@@H]1[O]2.[Na+].[Na+].[Na+] [sodium stibogluconate]
- effect on VEGF-A-induced suppression of CNV (laser-induced CNV): abolished

Molecule: Ccl-2: exogenous recombinant Ccl-2, monocyte chemoattractant
- effect on VEGF-A164 reduction in vasculogenesis [3]: abrogated
- effect on clodronate liposome reduction of BMDEC incorporation [3]: did not abrogate
- effect on CNV inhibited by VEGF-A antibody (laser-induced CNV; 0.55 ng): restored the CNV
- volume of CNV (laser-induced CNV; Ccl2−/− or Ccr2−/− mice): restores CNV
- volume of CNV (laser-induced CNV; Ccl2−/− or Ccr2−/− mice, listed as Recombinant Ccl-2): restored CNV
- effect on VEGF-A-induced suppression of CNV (laser-induced CNV): abrogates
- effect on VEGF-A-induced suppression of CNV (laser-induced CNV; listed as recombinant Ccl-2): abrogated

Molecule: FGF-2: basic fibroblast growth factor, another potent angiogenic cytokine
- volume of CNV (laser-induced CNV; [4]): did not evoke similar responses; also recorded: minor increases

B1: SPARC: recombinant human SPARC, secreted protein, acidic, rich in cysteine (protein, UniProt P09486 18-303, looked up)
SPARC: APQQEALPDETEVVEETVAEVTEVSVGANPVQVEVGEFDDGAEETEEEVVAENPCQNHHCKHGKVCELDENNTPMCVCQDPTSCPAPIGEFEKVCSNDNKTFDSSCHFFATKCTLEGTKKGHKLHLDYIGPCKYIPPCLDSELTEFPLRMRDWLKNVLVTLYERDEDNNLLTEKQKLRVKKIHENEKRLEAGDHPVELLARDFEKNYNMYIFPVHWQFGQLDQHPIDGYLSHTELAPLRAPLIPMEHCTTRFFETCDLDNDKYIALDEWAGCFGIKQKDIDKDLVI
- inhibition of VEGFR-1 kinase activity (VEGFR-1; in vitro, literature): inhibits the kinase activity of VEGFR-1
- volume of CNV (laser-induced CNV; [4]): did not alter CNV
- effect on VEGF-A-induced suppression of CNV (laser-induced CNV): abolished
- effect on VEGF-A-induced suppression of CNV (laser-induced CNV; listed as recombinant human SPARC): dose-dependently abolished
